In brackets after ≈: the same amount, converted by molar mass. Several values for one entry are separate records, joined by “and”; a condition that tells them apart may be missing. Equal values may be shown once. Read-outs that look alike come from different tables or passages of the source.
Tests used:
S. aureus DSM2569 = test: MIC, standard microdilution assay, growing S. aureus; type: cell-based, Staphylococcus aureus; conditions: S. aureus; for MIC: CA-MHB pH 7.4, read-out: MIC (μM) CA-MHB
Outline: (§1)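 Broth microdilution was used throughout. UPEC, P. aeruginosa and S. aureus were tested in CA-MHB buffered with 40 mM HEPES (pH 7.4); UPEC was additionally tested in LPM with 30 mM MES (pH 5.5). S. flexneri was grown in TSB. All determinations were run in triplicate.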

E. coli CFT073 (UPEC) = test: MIC, standard microdilution assay, growing UPEC; type: cell-based, Escherichia coli
Outline: as §1

[1] = tested on: intracellular S. flexneri 5a M90T in TC7 cells; test: microbe, parasite or virus in culture; type: cell-based, Shigella flexneri
non-growing UPEC CFT073 = test: Dose-dependent killing analysis (CFU spot-plating) of stationary-phase UPEC; type: cell-based, Escherichia coli
Outline: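 Non-growing (stationary-phase) UPEC CFT073 treated with compounds in 96-well format at 200 μl, then 10-fold serially diluted in PBS and 10 μl spots plated on LB agar. Plates incubated overnight at 37 °C; colonies counted at lowest resolvable dilution to give CFU. Three biological replicates.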

N[C@@H]1[C@H]2CN(c3nc4c(cc3F)c(=O)c(C(=O)O)cn4-c3ccc(F)cc3F)C[C@@H]12 [Trovafloxacin]
MIC (S. aureus DSM2569; Staphylococcus aureus, DSM2569): 0.125 µM (≈ 0.052 µg/mL) | MIC (E. coli CFT073 (UPEC); Escherichia coli, pH 5.5): 0.0625 µM (≈ 0.026 µg/mL) | MIC (E. coli CFT073 (UPEC); Escherichia coli, E. coli, pH 7.4, CA-MHB, read-out: MIC (μM) CA-MHB): 0.4 µM (≈ 0.167 µg/mL) | IC50 ([1]; Shigella flexneri, TC7, 14 h): 37 nM | Fluorescence intensity (RFU), Mean, 0.125 x MIC ([1]; TC7 cells infected with GFP-expressing S. flexneri, 14 h treatment, 0.125 x MIC): 8837.54 RFU | Fluorescence intensity (RFU), Mean, 0.25 x MIC ([1]; TC7 cells infected with GFP-expressing S. flexneri, 14 h treatment, 0.25 x MIC): 8024.79 RFU | Fluorescence intensity (RFU), Mean, 0.5 x MIC ([1]; TC7 cells infected with GFP-expressing S. flexneri, 14 h treatment, 0.5 x MIC): 6129.12 RFU | Fluorescence intensity (RFU), Mean, 2 x MIC ([1]; TC7 cells infected with GFP-expressing S. flexneri, 14 h treatment, 2 x MIC): 2933.5 RFU | Fluorescence intensity (RFU), Mean, 4 x MIC ([1]; TC7 cells infected with GFP-expressing S. flexneri, 14 h treatment, 4 x MIC): 2559.17 RFU | Fluorescence intensity (RFU), Mean, 8 x MIC ([1]; TC7 cells infected with GFP-expressing S. flexneri, 14 h treatment, 8 x MIC): 2016.56 RFU | Fluorescence intensity (RFU), Mean, 16 x MIC ([1]; TC7 cells infected with GFP-expressing S. flexneri, 14 h treatment, 16 x MIC): 1696.44 RFU | Fluorescence intensity (RFU), Mean, 32 x MIC ([1]; TC7 cells infected with GFP-expressing S. flexneri, 14 h treatment, 32 x MIC): 1579.94 RFU | Fluorescence intensity (RFU), Mean, MIC ([1]; TC7 cells infected with GFP-expressing S. flexneri, 14 h treatment, MIC): 3277.92 RFU | killing, average Δlog10(CFU/ml) (non-growing UPEC CFT073; E. coli in 1:4 CA-MHB (pH 7.4), drug concentration 0.25): 0.343 log10(CFU/ml) | log10(CFU/ml) of treated nongrowing bacteria (single replicates) (non-growing UPEC CFT073; E. coli in 1:4 CA-MHB (pH 7.4), drug concentration 0.25, before treatment 8.977): 9.041 log10(CFU/ml) and 8.447 log10(CFU/ml) and 8.415 log10(CFU/ml) | killing, average Δlog10(CFU/ml) (non-growing UPEC CFT073; E. coli in 1:4 CA-MHB (pH 7.4), drug concentration 0.5): 0.539 log10(CFU/ml) | log10(CFU/ml) of treated nongrowing bacteria (single replicates) (non-growing UPEC CFT073; E. coli in 1:4 CA-MHB (pH 7.4), drug concentration 0.5, before treatment 8.977): 8.699 log10(CFU/ml) and 8.362 log10(CFU/ml) and 8.255 log10(CFU/ml) | killing, average Δlog10(CFU/ml) (non-growing UPEC CFT073; E. coli in 1:4 CA-MHB (pH 7.4), drug concentration 1): 0.839 log10(CFU/ml) | log10(CFU/ml) of treated nongrowing bacteria (single replicates) (non-growing UPEC CFT073; E. coli in 1:4 CA-MHB (pH 7.4), drug concentration 1, before treatment 8.977): 8.255 log10(CFU/ml) and 8.204 log10(CFU/ml) and 7.954 log10(CFU/ml) | killing, average Δlog10(CFU/ml) (non-growing UPEC CFT073; E. coli in 1:4 CA-MHB (pH 7.4), drug concentration 2.5): 1.866 log10(CFU/ml) | log10(CFU/ml) of treated nongrowing bacteria (single replicates) (non-growing UPEC CFT073; E. coli in 1:4 CA-MHB (pH 7.4), drug concentration 2.5, before treatment 8.977): 7.255 log10(CFU/ml) and 6.903 log10(CFU/ml) and 7.176 log10(CFU/ml) | killing, average Δlog10(CFU/ml) (non-growing UPEC CFT073; E. coli in 1:4 CA-MHB (pH 7.4), drug concentration 5): 2.103 log10(CFU/ml) | log10(CFU/ml) of treated nongrowing bacteria (single replicates) (non-growing UPEC CFT073; E. coli in 1:4 CA-MHB (pH 7.4), drug concentration 5, before treatment 8.977): 7.146 log10(CFU/ml) and 6.699 log10(CFU/ml) and 6.778 log10(CFU/ml) | killing, average Δlog10(CFU/ml) (non-growing UPEC CFT073; E. coli in 1:4 CA-MHB (pH 7.4), drug concentration 10): 2.608 log10(CFU/ml) | log10(CFU/ml) of treated nongrowing bacteria (single replicates) (non-growing UPEC CFT073; E. coli in 1:4 CA-MHB (pH 7.4), drug concentration 10, before treatment 8.977): 6.462 log10(CFU/ml) and 6.322 log10(CFU/ml) (2×) | killing, average Δlog10(CFU/ml) (non-growing UPEC CFT073; E. coli in LPM (pH 5.5), drug concentration 0.25): 0.094 log10(CFU/ml) | log10(CFU/ml) of treated nongrowing bacteria (single replicates) (non-growing UPEC CFT073; E. coli in LPM (pH 5.5), drug concentration 0.25, before treatment 7.350): 7.146 log10(CFU/ml) and 6.544 log10(CFU/ml) and 8.079 log10(CFU/ml) | killing, average Δlog10(CFU/ml) (non-growing UPEC CFT073; E. coli in LPM (pH 5.5), drug concentration 0.5): 0.009 log10(CFU/ml) | log10(CFU/ml) of treated nongrowing bacteria (single replicates) (non-growing UPEC CFT073; E. coli in LPM (pH 5.5), drug concentration 0.5, before treatment 7.350): 7.146 log10(CFU/ml) and 6.732 log10(CFU/ml) and 8.146 log10(CFU/ml) | killing, average Δlog10(CFU/ml) (non-growing UPEC CFT073; E. coli in LPM (pH 5.5), drug concentration 1): 0.00468 log10(CFU/ml) | log10(CFU/ml) of treated nongrowing bacteria (single replicates) (non-growing UPEC CFT073; E. coli in LPM (pH 5.5), drug concentration 1, before treatment 7.350): 7.255 log10(CFU/ml) and 6.740 log10(CFU/ml) and 8.041 log10(CFU/ml) | killing, average Δlog10(CFU/ml) (non-growing UPEC CFT073; E. coli in LPM (pH 5.5), drug concentration 2.5): 0.225 log10(CFU/ml) | log10(CFU/ml) of treated nongrowing bacteria (single replicates) (non-growing UPEC CFT073; E. coli in LPM (pH 5.5), drug concentration 2.5, before treatment 7.350): 7.230 log10(CFU/ml) and 6.447 log10(CFU/ml) and 7.699 log10(CFU/ml) | killing, average Δlog10(CFU/ml) (non-growing UPEC CFT073; E. coli in LPM (pH 5.5), drug concentration 5): 0.336 log10(CFU/ml) | log10(CFU/ml) of treated nongrowing bacteria (single replicates) (non-growing UPEC CFT073; E. coli in LPM (pH 5.5), drug concentration 5, before treatment 7.350): 6.699 log10(CFU/ml) and 6.763 log10(CFU/ml) and 7.580 log10(CFU/ml) | killing, average Δlog10(CFU/ml) (non-growing UPEC CFT073; E. coli in LPM (pH 5.5), drug concentration 10): 0.963 log10(CFU/ml) | log10(CFU/ml) of treated nongrowing bacteria (single replicates) (non-growing UPEC CFT073; E. coli in LPM (pH 5.5), drug concentration 10, before treatment 7.350): 6.146 log10(CFU/ml) and 6.415 log10(CFU/ml) and 6.602 log10(CFU/ml)

Bleomycin
MIC (μM) 1:4 CA-MHB (S. aureus DSM2569; 1:4 diluted CA-MHB pH 7.4): 3.125 µM | MIC (S. aureus DSM2569): 12.5 µM | MIC (E. coli CFT073 (UPEC); E. coli, LPM pH 5.5, read-out: MIC): 0.5 µM | MIC (E. coli CFT073 (UPEC); E. coli, pH 7.4, CA-MHB, read-out: MIC (μM) CA-MHB): 0.5 µM | inhibition of intracellular Shigella ([1]; TC7 cells): inactive | Δlog10(CFU/ml) (non-growing UPEC CFT073; E. coli in 1:4 CA-MHB (pH 7.4), 0.25 μM, average killing vs before treatment (8.977)): 0.270 log10(CFU/ml) | Δlog10(CFU/ml) (non-growing UPEC CFT073; E. coli in 1:4 CA-MHB (pH 7.4), 0.5 μM, average killing vs before treatment (8.977)): 0.232 log10(CFU/ml) | Δlog10(CFU/ml) (non-growing UPEC CFT073; E. coli in 1:4 CA-MHB (pH 7.4), 1 μM, average killing vs before treatment (8.977)): 0.145 log10(CFU/ml) | Δlog10(CFU/ml) (non-growing UPEC CFT073; E. coli in 1:4 CA-MHB (pH 7.4), 2.5 μM, average killing vs before treatment (8.977)): 0.654 log10(CFU/ml) | Δlog10(CFU/ml) (non-growing UPEC CFT073; E. coli in 1:4 CA-MHB (pH 7.4), 5 μM, average killing vs before treatment (8.977)): 1.149 log10(CFU/ml) | Δlog10(CFU/ml) (non-growing UPEC CFT073; E. coli in 1:4 CA-MHB (pH 7.4), 10 μM, average killing vs before treatment (8.977)): 1.686 log10(CFU/ml) | Δlog10(CFU/ml) (non-growing UPEC CFT073; E. coli in LPM (pH 5.5), 0.25 μM, average killing vs before treatment (7.350)): 0.339 log10(CFU/ml) | Δlog10(CFU/ml) (non-growing UPEC CFT073; E. coli in LPM (pH 5.5), 0.5 μM, average killing vs before treatment (7.350)): 0.181 log10(CFU/ml) | Δlog10(CFU/ml) (non-growing UPEC CFT073; E. coli in LPM (pH 5.5), 1 μM, average killing vs before treatment (7.350)): 0.347 log10(CFU/ml) | Δlog10(CFU/ml) (non-growing UPEC CFT073; E. coli in LPM (pH 5.5), 2.5 μM, average killing vs before treatment (7.350)): 0.457 log10(CFU/ml) | Δlog10(CFU/ml) (non-growing UPEC CFT073; E. coli in LPM (pH 5.5), 5 μM, average killing vs before treatment (7.350)): 1.004 log10(CFU/ml) | Δlog10(CFU/ml) (non-growing UPEC CFT073; E. coli in LPM (pH 5.5), 10 μM, average killing vs before treatment (7.350)): 1.335 log10(CFU/ml) | Log10(CFU/ml), Replicate #1 (non-growing UPEC CFT073; pH 5.5): 5.301 Log10(CFU/ml) and 5.477 Log10(CFU/ml) and 6.204 Log10(CFU/ml) and 6.279 Log10(CFU/ml) and 6.491 Log10(CFU/ml) and 6.477 Log10(CFU/ml) | Log10(CFU/ml), Replicate #2 (non-growing UPEC CFT073; pH 5.5): 5.568 Log10(CFU/ml) and 6.114 Log10(CFU/ml) and 6.778 Log10(CFU/ml) (2×) and 6.903 Log10(CFU/ml) and 6.477 Log10(CFU/ml) | Log10(CFU/ml), Replicate #3 (non-growing UPEC CFT073; pH 5.5): 7.176 Log10(CFU/ml) and 7.447 Log10(CFU/ml) and 7.699 Log10(CFU/ml) and 7.954 Log10(CFU/ml) and 8.114 Log10(CFU/ml) and 8.079 Log10(CFU/ml) | Log10(CFU/ml), Replicate #1 (non-growing UPEC CFT073; pH 7.4): 7.903 Log10(CFU/ml) and 8.362 Log10(CFU/ml) and 8.903 Log10(CFU/ml) and 9.462 Log10(CFU/ml) and 9.362 Log10(CFU/ml) and 9.114 Log10(CFU/ml) | Log10(CFU/ml), Replicate #2 (non-growing UPEC CFT073; pH 7.4): 6.556 Log10(CFU/ml) and 7.279 Log10(CFU/ml) and 7.954 Log10(CFU/ml) and 8.778 Log10(CFU/ml) and 8.699 Log10(CFU/ml) and 8.301 Log10(CFU/ml) | Log10(CFU/ml), Replicate #3 (non-growing UPEC CFT073; pH 7.4): 7.415 Log10(CFU/ml) and 7.845 Log10(CFU/ml) and 8.114 Log10(CFU/ml) and 8.255 Log10(CFU/ml) and 8.176 Log10(CFU/ml)
